Values of other authors in patent US20060141037A1, “Bilayer tablets of oxcarbazepine for controlled delivery and a process of preparation thereof” (J. B. Chemicals & Pharmaceuticals Ltd., priority 2004, published 2006).

Tests used:
[1] = tested on: animal models; conditions: comparable to that of carbamazepine and phenytoin
[2] = tested on: voltage-sensitive sodium channels; conditions: in vitro electrophysiological studies

SMILES | antiepileptic activity in animal models [1] | effect on voltage-sensitive sodium channels [2] | solubility in water
NC(=O)N1c2ccccc2CC(O)c2ccccc21 (centres unmarked) [MHD, 10,11-dihydro-10-hydro-carbamazepine] | potent antiepileptic activity | blockade of voltage-sensitive sodium channels | 
NC(=O)N1c2ccccc2CC(=O)c2ccccc21 [Oxcarbazepine, 10,11-dihydro-10-oxo-5H-dibenz[b,f]azepine-5-carboxamide] | potent antiepileptic activity | blockade of voltage-sensitive sodium channels | practically insoluble in water
